Source: patent US7521536B2, “Glutamate transporter associated protein” (The Johns Hopkins University School of Medicine, priority 1999, dated 2009)

How the values were obtained:
[1] = test system: GTRAP3-18; assay: intraventricular infusion of retinoic acid, cortical GTRAP3-18 and glutamate uptake; assay type: in vivo
Method: To test this hypothesis in vivo, retinoic acid was infused intraventricularly (1-20 μM; 0-20 pmol/μL). […] This effect is specifically due to decreased EAAC1 -mediated transport because it was not altered by the glutamate transport inhibitor dihydrokainic acid, at a concentration that predominantly effects GLT-1 (Robinson et al. (1998)). […] Retinoic acid had no effect on glutamate transport by cells expressing GLT-1 or EAAT4.

[2] = test system: GTRAP3-18; assay: GTRAP3-18 antisense oligomers transfected into HEK293 cells; assay type: cell-based
Text: Western blot analyses and glutamate uptake assays reveal endogenous expression of EAAC1 and GTRAP3-18 protein in HEK cells, but no expression of other transporter subtypes, e.g., GLAST, GLT-1, or EAAT4. Antisense oligomers, targeted to the 5′-GTRAP3-18 transcript, were transfected into HEK293 cells.

[3] = test system: GTRAP3-18; assay: intraventricular GTRAP3-18 antisense oligomers, cortical glutamate uptake; assay type: in vivo
Method: To examine modulation of EAAC1 by GTRAP3-18 in vivo, GTRAP3-18 antisense oligomers were administered intraventricularly. Sequences for the novel phosphodiester oligonucleotides used were: sense GTRAP3-18: 5′-GTGAACCTTGCCCGCTC-3′, antisense GTRAP3-18: 5′-GAGCGGGGCAAGGTTCAC-3′ Oligonucleotides (5 μg/μL), separately or in combination were administered intraventricularly over 3-11 days, by mini-osmotic pumps (Alza Corp., Palo Alto, Calif.) as described previously (Rothstein et al., (1994)).

[4] = test system: EAAT4; assay: cerebellar glutamate uptake after intra-cisternal injection of HSV amplicon vectors; assay type: in vivo, rat; settings: inhibitor of GLT-1 mediated glutamate transport
[5] = test system: EAAT4; assay: Na+-dependent glutamate uptake in EAAT4 expressing HEK cells transfected with PCTAIRE; assay type: cell-based
Method: Transfection of EAAT4 expressing HEK cells with PCTAIRE results in diminished Na^+-dependent glutamate uptake. HEK cells and EAAT4 expressing HEK cells were transfected with 1.0 μg of pCMV PCTAIRE plasmid, and allowed to express for 48 hours. Cell monolayers were then washed with tissue buffer (50 mM Tris, 320 mM sucrose, pH 7.4). The cells were then incubated for 4 min at 37° C. with 1 mL of either sodium-(120 mM NaCl, 25 mM NaHCO3, 5 mM KCl, 2 mM CaCl2, 1 mM KH2PO4, 1 mM MgSO4, 10% glucose and 10 μM glutamate or choline-(120 mM choline-Cl, 25 mM Tris-HCl, 5 mM KCl, 2 mM CaCl2, 1 mM KH2PO4, 1 mM MgSO4, 10% glucose and 10 μM glutamate) containing buffer. Glutamate uptake assays were then performed using L-[^3H]-Glutamate in the presence and absence of Na^+. After rinsing, cells were lysed in 0.1 N NaOH and lysate radioactivity measured using a scintillation counter. Protein content was measured and glutamate uptake calculated as the difference between Na^+ containing and sodium free values per mg of protein.
Inhibition of Na^+-dependent glutamate uptake by PCTAIRE is reversible using the cdk2 inhibitor olomucine. HEK cells expressing EAAT4 were transfected with 1.0 μg of pCMV PCTAIRE plasmid as described above, and allowed to express for 48 hours. Prior to glutamate uptake assay, cells were treated with 100 μM olomucine for 30 minutes at 37° C. as indicated. […]

[6] = antisense 50-100 ng/day intraventricular for 7-10 days, retinoic acid 2.5 μM
[7] = eleven days of intraventricular treatment

In the case of “5′-GAGCGGGGCAAGGTTCAC-3′ (DNA, all phosphodiester, methylation of C not given here) [antisense GTRAP3-18, phosphodiester oligonucleotide antisense to the 5′-GTRAP3-18 transcript]”, the “inhibition of glutamate transport seen with retinoic acid treatment” value [1, 6] is reported as “blocks”, the “retinoic acid induction of GTRAP3-18” value [1, 6] is reported as “blocks” and the EAAC1 protein level [2] is reported as “not affected”. For the same compound, the “endogenous GTRAP3-18 protein level” value [2] was “reduced”, the glutamate transport activity [2] was “elevated” and the “Vmax of DHK-insensitive cortical glutamate uptake” value ([3]; antisense-treated animals, control 1.08) was 1.08 nmol/min/mg protein. The Km ([3]; antisense-treated animals, control Km=19.7 μM, read-out: Km of DHK-insensitive cortical glutamate uptake) was 10 µM, the GTRAP3-18 protein level [3, 7] was “reduction” and the cortical glutamate uptake [3, 7] was “significant increase”.

For “5′-GTGAACCTTGCCCGCTC-3′ (chemistry not fully specified) [sense GTRAP3-18, sense control phosphodiester oligonucleotide, reference compound]”, the cortical glutamate uptake [3, 7] was “not altered”.

With `CC(C)[C@H]1CN[C@H](C(=O)O)[C@H]1CC(=O)O` [Dihydrokainic acid, reference compound] the “effect of inhibitor on the retinoic acid-induced decrease of glutamate uptake” value ([1]; concentration that predominantly effects GLT-1) was “not altered”, the “effect on cerebellar glutamate uptake” value [4] was “no effect” and the “effect of inhibitor on the antisense-induced increase in cortical glutamate uptake” value ([3]; in vivo) was “not altered”.

For `Cn1cnc2c(NCc3ccccc3)nc(NCCO)nc21` [olomucine, reference compound], the “inhibition of Na+-dependent glutamate uptake by PCTAIRE” value ([5]; 100 μM for 30 minutes at 37° C. before uptake assay) was “reversible”.

In the case of “PCTAIRE: serine/threonine kinase related to the cyclin-dependent kinase 2 (cdk2) family, interacts with amino terminus of EAAT4”, the “Na+-dependent glutamate uptake” value ([5]; 1.0 μg pCMV PCTAIRE plasmid, 48 hours) is reported as “diminished”.
